Values quoted from earlier work in patent US20210061712A1, “COMPOSITE STRUCTURAL MATERIAL COMPOSITIONS RESISTANT TO BIODEGRADATION” (The University of British Columbia, priority 2018, published 2021).
Where two headings read alike, the source gives them in different places.

Legend:
[1] = tested on: Desulfovibrio desulfricans strain; conditions: pipe's internal wall coated with the oxide in epoxy

Molecule: [Na+].[Na+].[O]=[W](=[O])([O-])[O-] [sodium tungstate]
- growth of A. thiooxidans cells (A. Thiooxidans cells): completely inhibits the growth

Molecule: [Cu+2] [Cu]
- activity of SRB species (SRB species; 20 mg/L): reduced

Molecule: O=CCCCC=O [glutaraldehyde]
- activity of SRB species (SRB species; 10 mg/L): reduced

Molecule: silver oxide
- bacterial corrosion of concrete pipe [1]: reduce the bacterial corrosion

Molecule: [Zn+2] [Zn]
- activity of SRB species (SRB species; 20 mg/L): reduced
